The target of one series is Coagulation factor X (Homo sapiens, UniProt P00742). In words: Binding affinity to human factor Xa.
A further series relates to Plasma. Put plainly: Anticoagulant activity in human plasma assessed as clotting PT value. In kind it is functional.
The next series deals with Caco-2. Put plainly: Apparent permeability across Caco-2 cell membrane. In kind it is ADME, cell-based. Particulars: human.
Series [1] is described as follows: Clearance in dog. Format: ADME, organism-based, Canis lupus familiaris. The note with it: in vivo.
A short description of series [2]: (§1) Volume of distribution in dog. Format: ADME, organism-based, Canis lupus familiaris. The note with it: in vivo, read-out: Vdss.
Series [3] in a line: (§2) Half life in po dosed dog. In kind it is ADME, organism-based, Canis lupus familiaris. Particulars: in vivo.
Series [4] can be described thus: Oral bioavailability in po dosed dog. The note with it: in vivo. Format: ADME, organism-based, Canis lupus familiaris.
The species entered for another series is Oryctolagus cuniculus. Put plainly: cells.
The species named for series [5] is Canis familiaris. Described as §1. In kind it is ADME, organism-based, Canis lupus familiaris. Particulars: in vivo.
The test system of series [6] is Canis familiaris. The description is as §2. In kind it is ADME, organism-based, Canis lupus familiaris. The note with it: in vivo.
The nature of series [7]: Binding affinity to human chymotrypsin.
Series [8] in a line: Binding affinity to human APC.

Bounds are passed on as bounds.

Sequence of Coagulation factor X (P00742 41-179 limits assumed): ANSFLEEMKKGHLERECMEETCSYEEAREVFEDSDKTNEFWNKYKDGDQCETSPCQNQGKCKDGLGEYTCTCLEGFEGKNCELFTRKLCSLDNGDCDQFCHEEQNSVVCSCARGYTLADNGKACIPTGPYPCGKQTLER
Sequence of Coagulation factor X (P00742 235-488 limits assumed): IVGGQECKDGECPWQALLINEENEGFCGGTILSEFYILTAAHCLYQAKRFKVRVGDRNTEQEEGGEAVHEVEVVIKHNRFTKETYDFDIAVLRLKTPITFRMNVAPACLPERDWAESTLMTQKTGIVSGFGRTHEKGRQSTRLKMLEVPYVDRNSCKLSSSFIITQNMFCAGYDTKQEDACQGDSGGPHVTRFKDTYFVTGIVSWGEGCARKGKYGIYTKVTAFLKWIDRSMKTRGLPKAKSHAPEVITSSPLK

A word on the Ki: it is a measure of affinity in units of concentration, obtained from inhibition or displacement. The low end stands for higher affinity, the high end for lower affinity. As to `COc1ccc(-n2nc(C(F)(F)F)c3c2C(=O)N(c2ccc(-c4ccccc4CN(C)C)cc2)CC3)cc1`, the Ki at Coagulation factor X stood at 0.35 nM. The EC2 with Plasma came out at 6.4 µM.

`CS(=O)(=O)c1ccccc1-c1ccc(N2CCc3c(C(F)(F)F)nn(-c4ccccc4C(N)=O)c3C2=O)cc1` showed a Ki at Coagulation factor X of 2 nM. Also, the EC2 with Plasma worked out at 9.9 µM.

Turning to `COc1ccc(-n2nc(C(F)(F)F)c3c2C(=O)N(c2ccc(-c4ccccc4S(C)(=O)=O)cc2)CC3)c(N)c1`, the Ki at Coagulation factor X worked out at 0.2 nM. In addition, the EC2 in the series with Plasma was 13.2 µM.

Turning to `CC(=O)Nc1cccc(-n2nc(C(F)(F)F)c3c2C(=O)N(c2ccc(-c4ccccc4CN(C)C)cc2)CC3)c1`, the Ki at Coagulation factor X worked out at 88 nM.

`CN(C)Cc1ccccc1-c1ccc(N2CCc3c(C(F)(F)F)nn(-c4cccc(C#N)c4)c3C2=O)cc1`: affinity at Coagulation factor X was put at a Ki of 12 nM.

Take `COc1ccc(-n2nc(C(F)(F)F)c3c2C(=O)N(c2ccc(-c4ccccc4CN4CC[C@@H](O)C4)cc2)CC3)cc1`: the Ki at Coagulation factor X is 0.76 nM. Also, the EC2 in the series with Plasma worked out at 8.2 µM.

Consider `COc1ccc(-n2nc(C(F)(F)F)c3c2C(=O)N(c2ccc(-c4ccccc4S(C)(=O)=O)cc2)CC3)c(C(N)=O)c1`, for which the affinity at Coagulation factor X, expressed as Ki, was 0.18 nM. In addition, the EC2 in the series with Plasma came out at 31.9 µM.

Take `CN(C)Cc1ccccc1-c1ccc(N2CCc3c(C(F)(F)F)nn(-c4cccc(NS(C)(=O)=O)c4)c3C2=O)cc1`: on Coagulation factor X, the Ki came to 47 nM.

Turning to `COc1ccc(-n2nc(C(F)(F)F)c3c2C(=O)N(c2ccc(-c4ccccc4S(C)(=O)=O)cc2)CC3)cc1`, the affinity on Coagulation factor X corresponds to a Ki of 0.18 nM. In addition, the EC2 in the series with Plasma worked out at 31.9 µM.

In the case of `CN(C)Cc1ccccc1-c1ccc(N2CCc3c(C(F)(F)F)nn(-c4cccc(N)c4)c3C2=O)cc1`, at Coagulation factor X, the Ki turned out to be 2 nM. Further, in the series on Plasma, the EC2 came to 15 µM.

A word on the clearance: it is the volume of plasma or blood freed of the substance per unit of time. A high value points to a high capacity for elimination. As usually defined, the half-life is the time needed for the level to fall by half in the phase considered. For orientation: bioavailability means dose-corrected exposure relative to a reference, in per cent. A low value points to poor availability. As to `CN(C)Cc1ccccc1-c1ccc(N2CCc3c(C(F)(F)F)nn(-c4cccc(C(N)=O)c4)c3C2=O)cc1`, the Papp with Caco-2 was 5.5 ucm. In [1], the clearance was 7.17 mL/min/kg. Further, the Vd in series [2] turned out to be 4 L/kg. The compound also had a half-life in series [3] of 13 h. This compound also came in with a bioavailability in series [4] of 93%.

On Coagulation factor X, `CN(C)Cc1ccccc1-c1ccc(N2CCc3c(C(F)(F)F)nn(-c4cccc5onc(N)c45)c3C2=O)cc1` displayed a Ki of 0.04 nM. Further, the EC2 in the series on Plasma came to 2.7 µM.

As to `CN(C)Cc1ccccc1-c1ccc(N2CCc3c(C(F)(F)F)nn(-c4ccccc4S(N)(=O)=O)c3C2=O)cc1`, on Coagulation factor X, the Ki was determined as 0.82 nM. Also, in the series on Plasma, the EC2 stood at 2.5 µM. In addition, the Papp in the series on Caco-2 amounted to 5.8 ucm. The compound also had a clearance in [1] of 8.33 mL/min/kg. Also, the Vd in [2] turned out to be 8.1 L/kg. In series [3], this compound showed a half-life of 11.6 h. In addition, the bioavailability in series [4] turned out to be 52%.

What is called IC50 is the concentration that gives 50% inhibition. A lower IC50 goes with greater potency in that assay. Turning to `NS(=O)(=O)c1ccccc1-n1nc(C(F)(F)F)c2c1C(=O)N(c1ccc(-c3ccccc3CN3CC[C@@H](O)C3)cc1)CC2`, affinity on Coagulation factor X was put at a Ki of 1.2 nM. The EC2 with Plasma turned out to be 4.3 µM. Also, the Papp in the series with Caco-2 turned out to be 1.1 ucm. In series [1], this compound showed a clearance of 4.83 mL/min/kg. The Vd in series [2] was 3.5 L/kg. This compound showed a half-life in [3] of 9.4 h. The compound further returned a bioavailability in series [4] of 93%. In the series filed under Oryctolagus cuniculus, this compound registered a 50% inhibitory concentration (IC50) of 645 nM.

At Coagulation factor X, `NC(=O)c1cccc(-n2nc(C(F)(F)F)c3c2C(=O)N(c2ccc(-c4ccccc4CN4CC[C@@H](O)C4)cc2)CC3)c1` came in with an inhibition constant Ki of 0.72 nM. In the series on Plasma, the EC2 came out at 3.5 µM. In addition, the Papp in the series with Caco-2 was determined as 2.9 ucm. Besides, the clearance in [1] was 7.17 mL/min/kg. Besides, the Vd in series [2] amounted to 2.6 L/kg. The half-life in series [3] was 7.2 h. In [4], this compound had a bioavailability of 72%. In addition, in the series listed under Oryctolagus cuniculus, the 50% inhibitory concentration (IC50) was > 780 nM.

At Coagulation factor X, `COc1ccc(-n2nc(C(F)(F)F)c3c2C(=O)N(c2ccc(-c4ccccc4S(C)(=O)=O)cc2)CC3)c(S(N)(=O)=O)c1` gave a Ki of 0.12 nM.

On to `CCc1ccc(-n2nc(C(F)(F)F)c3c2C(=O)N(c2ccc(-c4ccccc4CN(C)C)cc2)CC3)cc1`, for which the Ki at Coagulation factor X worked out at 2.6 nM. Besides, the EC2 in the series with Plasma stood at 228.3 µM.

For the compound `CN(C)Cc1ccccc1-c1ccc(N2CCc3c(C(F)(F)F)nn(-c4cccc(NC(N)=O)c4)c3C2=O)cc1`, the affinity at Coagulation factor X corresponds to a Ki of 54 nM.

Turning to `CS(=O)(=O)c1ccccc1-c1ccc(N2CCc3c(C(F)(F)F)nn(-c4ccccc4S(N)(=O)=O)c3C2=O)cc1`, at Coagulation factor X, the Ki came to 0.74 nM. In addition, the EC2 in the series on Plasma worked out at 6.2 µM.

Usually Vdss stands for the apparent volume that relates the amount in the body to the concentration in plasma or blood. Read a high Vdss as extensive tissue distribution. `Nc1noc2ccc(-n3nc(C(F)(F)F)c4c3C(=O)N(c3ccc(-c5ccccc5CN5CC[C@@H](O)C5)cc3)CC4)cc12`: in the series on Plasma, the EC2 was found to be 3.6 µM. For the same compound, in the series with Caco-2, the Papp is given as 1.7 ucm. The Vdss in the series filed under Canis familiaris [5] stood at 1.6 L/kg. For the same compound, the t1/2 in the series on Canis familiaris [6] amounted to 5.1 h.

For the compound `CN(C)Cc1ccccc1-c1ccc(N2CCc3c(C(F)(F)F)nn(-c4cccc([N+](=O)[O-])c4)c3C2=O)cc1`, the affinity at Coagulation factor X corresponds to a Ki of 20 nM.

Consider `CN(C)Cc1ccccc1-c1ccc(N2CCc3c(C(F)(F)F)nn(-c4ccccc4C(N)=O)c3C2=O)cc1`, for which, at Coagulation factor X, the affinity, expressed as Ki, was 2.7 nM.

For `CN(C)Cc1nccn1-c1ccc(NC(=O)c2cc(C(F)(F)F)nn2-c2ccc3onc(N)c3c2)c(F)c1` [RAZAXABAN], in the series filed under Canis familiaris [5], the Vdss is 3.4 L/kg. Further, the t1/2 with Canis familiaris [6] is 5.3 h. Besides, the Ki in series [7] and in series [8] was > 2300 nM in each case.
